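Cultured in 96-well plates, cells were exposed to test compound for 48 hours across five concentrations. GI50 is the concentration that inhibits growth by half. Definition used: TGI = concentration required for complete inhibition of growth.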

Test systems include 786-0 renal; A498 renal; ACHN renal; CCRF-CEM leukemia; DU-145 prostate; HOP-62 NSCLC; LOX IMVI melanoma; M14 melanoma; NCI-H23 lung; OVCAR-4 ovarian; PC-3 prostate; RXF 393 renal; SF-295 CNS; SR leukemia; UACC-62 melanoma.
Holding throughout (assay): NCI-60 cell line screen, 48 h

As for `O=C(NCCCCCN1CCC2(CCCCC2)CC1)C(C1CCCCC1)C1CCCCC1`, the TGI with 786-0 renal was found to be 9.65 µM; in the assay on A498 renal it was 9.42 µM; in the assay on ACHN renal, 8.68 µM; in the assay on CCRF-CEM leukemia, 11.9 µM; with DU-145 prostate it was 9.75 µM; in the assay on HOP-62 NSCLC, 4.07 µM. Moreover, the TGI is 7.02 µM in the assay with LOX IMVI melanoma; 3.23 µM with M14 melanoma; 9.89 µM in the assay with NCI-H23 lung; 14.5 µM in the assay with OVCAR-4 ovarian; 8.17 µM with PC-3 prostate; 8.92 µM in the assay with RXF 393 renal. Further, the figures for the TGI in the assay with SF-295 CNS, in the assay on SR leukemia and in the assay on UACC-62 melanoma were 3.56 µM, 4.17 µM and 7.2 µM, respectively.
Consider `O=C(Nc1ccc2ccccc2c1)c1cc2cc(CCl)ccc2oc1=O`, for which the TGI with 786-0 renal, in the assay with A498 renal, in the assay with ACHN renal, in the assay with CCRF-CEM leukemia, in the assay on DU-145 prostate and in the assay with HOP-62 NSCLC was above 100 µM in each case. Besides, the TGI with LOX IMVI melanoma was above 100 µM; in the assay on M14 melanoma, above 100 µM; with NCI-H23 lung, above 100 µM; in the assay with OVCAR-4 ovarian it was above 100 µM; with PC-3 prostate, above 100 µM; in the assay on RXF 393 renal, 54.1 µM. For the same compound, the TGI in the assay on SF-295 CNS, with SR leukemia and in the assay on UACC-62 melanoma was above 100 µM in each case.
`CC(=O)c1sc2[n+](c1C)C(=O)/C(=C\c1ccccc1Cl)S2`: the TGI in the assay on 786-0 renal turned out to be 38.2 µM; in the assay with A498 renal it was 74.3 µM; with ACHN renal, 36 µM; in the assay with CCRF-CEM leukemia, 91 µM; in the assay with DU-145 prostate, 33.6 µM; in the assay on HOP-62 NSCLC, 47.7 µM. Also, the TGI with LOX IMVI melanoma was 35.8 µM; in the assay on M14 melanoma, 40 µM; in the assay with NCI-H23 lung, 38.5 µM; with OVCAR-4 ovarian, above 100 µM; in the assay on PC-3 prostate, 49.9 µM; in the assay on RXF 393 renal, 47.4 µM. Moreover, the TGI in the assay on SF-295 CNS worked out at 33 µM; with SR leukemia, 52.5 µM; in the assay on UACC-62 melanoma, 25.8 µM.
As to `CCOc1cc2c(cc1O)C(N)C[C@@H]1[C@@H]2CC[C@]2(C)[C@@H](O)CC[C@@H]12` (some centres not stated), the TGI in the assay with 786-0 renal was above 100 µM; with A498 renal, above 100 µM; with ACHN renal it was above 100 µM; with CCRF-CEM leukemia it was 71.6 µM; with DU-145 prostate it was above 100 µM; in the assay on HOP-62 NSCLC, above 100 µM. The TGI in the assay with LOX IMVI melanoma is above 100 µM; in the assay on M14 melanoma, 98.4 µM; with NCI-H23 lung it was above 100 µM; in the assay with OVCAR-4 ovarian it was above 100 µM; in the assay on PC-3 prostate, above 100 µM; in the assay on RXF 393 renal, above 100 µM. Further, the TGI in the assay on SF-295 CNS is above 100 µM; with SR leukemia, 63 µM; with UACC-62 melanoma, above 100 µM. In addition, the GI50 was above 100 µM with DU-145 prostate and 18.7 µM with UACC-62 melanoma.
Consider `O=[N+]([O-])/C(C(Cl)=C(Cl)Cl)=C(/Nc1ccccc1)Sc1ccccc1`, for which the TGI amounted to 46.5 µM with 786-0 renal; 38.3 µM with A498 renal; 33.1 µM in the assay on ACHN renal; 36.6 µM in the assay with CCRF-CEM leukemia; 41.4 µM with DU-145 prostate; 62 µM with HOP-62 NSCLC. Besides, the TGI in the assay with LOX IMVI melanoma was found to be 30.7 µM; with M14 melanoma, 36.5 µM; in the assay with NCI-H23 lung, 36.2 µM; in the assay with OVCAR-4 ovarian, 37.3 µM; in the assay on PC-3 prostate it was 34.9 µM; in the assay on RXF 393 renal, 40.3 µM. For the same compound, the TGI with SF-295 CNS was determined as 47.5 µM; in the assay with SR leukemia, 43 µM; in the assay with UACC-62 melanoma, 39.9 µM.
In the case of `CC/C(N)=N\NC(=O)OC(C)(C)C`, the TGI in the assay with 786-0 renal, with A498 renal, in the assay on ACHN renal, in the assay on CCRF-CEM leukemia, in the assay on DU-145 prostate and in the assay with HOP-62 NSCLC was above 100 µM throughout. Besides, the TGI in the assay with LOX IMVI melanoma, with M14 melanoma, in the assay on NCI-H23 lung, with OVCAR-4 ovarian, in the assay with PC-3 prostate and with RXF 393 renal was above 100 µM each time. Also, the TGI with SF-295 CNS, with SR leukemia and with UACC-62 melanoma was above 100 µM in each case.
Take `Cc1csc(-n2c(C)nc3cc(Cl)ccc3c2=O)n1`: the TGI in the assay with 786-0 renal, in the assay with A498 renal, in the assay on ACHN renal, in the assay on CCRF-CEM leukemia, in the assay on DU-145 prostate and with HOP-62 NSCLC was above 100 µM throughout. The TGI in the assay on LOX IMVI melanoma, in the assay on M14 melanoma, in the assay with NCI-H23 lung, with OVCAR-4 ovarian, in the assay with PC-3 prostate and in the assay with RXF 393 renal was above 100 µM in each case. Moreover, the TGI in the assay with SF-295 CNS, in the assay on SR leukemia and in the assay with UACC-62 melanoma was above 100 µM each time.
As to `CC(C)C(NC(=O)C(Cc1ccccc1)NC(=O)[C@H]1CCC[C@H]1NC(=O)C(Cc1ccc(OC(C)(C)C)cc1)NC(=O)OC(C)(C)C)C(N)=O` (some centres not stated), the TGI in the assay on 786-0 renal is above 100 µM; in the assay with A498 renal it was 27.6 µM; in the assay on ACHN renal, above 100 µM; in the assay on CCRF-CEM leukemia, 39.4 µM; in the assay with DU-145 prostate it was above 100 µM; in the assay with HOP-62 NSCLC, 32.5 µM. Moreover, the TGI in the assay with LOX IMVI melanoma is 30.3 µM; with M14 melanoma, 33.6 µM; in the assay with NCI-H23 lung it was 35.7 µM; with OVCAR-4 ovarian it was 65.4 µM; in the assay on PC-3 prostate, 54 µM; with RXF 393 renal, above 100 µM. The TGI in the assay with SF-295 CNS was 34.5 µM; in the assay with SR leukemia, above 100 µM; in the assay with UACC-62 melanoma, 40.5 µM.
In the case of `Cc1ccc2c(c1C)C(=O)/C(=C/c1cccc(C)c1C(=O)O)C2`, the TGI in the assay on 786-0 renal is above 100 µM; in the assay with A498 renal it was 99.2 µM; in the assay with ACHN renal, above 100 µM; in the assay with CCRF-CEM leukemia, above 100 µM; with DU-145 prostate, above 100 µM; in the assay on HOP-62 NSCLC, above 100 µM. The TGI is above 90.7 µM in the assay with LOX IMVI melanoma; above 100 µM in the assay with M14 melanoma; above 100 µM with NCI-H23 lung; above 100 µM in the assay with OVCAR-4 ovarian; above 100 µM in the assay on PC-3 prostate; above 100 µM with RXF 393 renal. The TGI in the assay with SF-295 CNS, in the assay with SR leukemia and in the assay on UACC-62 melanoma was above 100 µM throughout.

Source of the values: PubChem BioAssay (NCI).
